For 18 molecules, DC50 results are on record in patent US20260184691A1, “INHIBITORS AND DEGRADERS OF PIP4K PROTEIN” (Larkspur Biosciences, Inc., priority 2022, published 2026).

For this assay, the target named is T1, endogenous PIP4K2C C-terminally tagged with HiBiT peptide in MOLT-4 cells (Homo sapiens, UniProt Q8TBX8).
T1 construct: to C-terminally tag endogenous PIP4K2C with HiBiT peptide; host or cells: MOLT-4 (CRISPR-Cas9 knock-in clone)
T1 sequence (Q8TBX8 1-421): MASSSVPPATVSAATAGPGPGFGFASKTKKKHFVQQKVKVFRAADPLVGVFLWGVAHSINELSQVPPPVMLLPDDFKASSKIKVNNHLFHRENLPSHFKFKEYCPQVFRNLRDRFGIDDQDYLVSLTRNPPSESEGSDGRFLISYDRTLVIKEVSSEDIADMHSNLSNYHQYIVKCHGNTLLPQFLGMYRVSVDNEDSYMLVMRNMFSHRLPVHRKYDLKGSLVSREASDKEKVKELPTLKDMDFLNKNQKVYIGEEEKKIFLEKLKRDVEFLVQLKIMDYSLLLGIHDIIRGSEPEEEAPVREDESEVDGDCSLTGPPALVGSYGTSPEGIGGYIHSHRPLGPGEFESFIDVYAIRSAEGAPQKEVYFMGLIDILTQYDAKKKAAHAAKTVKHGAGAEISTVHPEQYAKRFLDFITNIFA
Put plainly: HiBiT PIP4K2C degradation assay in MOLT-4 cells. The format is cell-based. As to conditions: 24 hours, 10-point dose response, top concentration 10 micromolar, read-out: HiBIT-degradation MOLT4 PIP4k2C 24 hours DC50. A digest of the protocol: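 Cells bearing C-terminal HiBiT knock-in were exposed to a 10-point, 3-fold dilution series (top 10 micromolar, duplicate) for 24 h at 37C, 5% CO2. Remaining tagged protein read by lytic HiBiT luminescence; DC50 from Hill-equation fit.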
For orientation: HiBiT is a short tag that completes a luciferase, so light tracks the accessible tagged protein.

Where only a bound is given, the exact number is not on record here.

Take `O=C(COc1cccc2c1C(=O)N(C1CCC(=O)NC1=O)C2=O)NCCCCCCCC(=O)Nc1cncc(Nc2ncc(Cl)c(-c3cccc(-c4ccccc4)c3)n2)c1` (stereo not drawn) [Compound 86, N-(5-((4-([1,1′-biphenyl]-3-yl)-5-chloropyrimidin-2-yl)amino)pyridin-3-yl)-8-(2-((2-(2,6-dioxopiperidin-3-yl)-1,3-dioxoisoindolin-4-yl)oxy)acetamido)octanamide]: the DC50 (as a rule, the concentration at which degradation of the target reaches its halfway point) is below 500 nM. The same measure for `O=C1CCC(N2Cc3cc(OCCCCC(=O)N4CCC5(CC4)CCN(c4cncc(Nc6ncc(Cl)c(-c7cccc(-c8ccccc8)c7)n6)c4)C5=O)ccc3C2=O)C(=O)N1` (stereo not drawn) [Compound 87, 3-(5-((5-(2-(5-((4-([1,1′-biphenyl]-3-yl)-5-chloropyrimidin-2-yl)amino)pyridin-3-yl)-1-oxo-2,8-diazaspiro[4.5]decan-8-yl)-5-oxopentyl)oxy)-1-oxoisoindolin-2-yl)piperidine-2,6-dione]: below 500 nM; for `O=C1CCC(N2Cc3cc(OCCCCCC(=O)N4CCC5(CC4)CCN(c4cncc(Nc6ncc(Cl)c(-c7cccc(-c8ccccc8)c7)n6)c4)C5=O)ccc3C2=O)C(=O)N1` (stereo not drawn) [Compound 88, 3-(5-((6-(2-(5-((4-([1,1′-biphenyl]-3-yl)-5-chloropyrimidin-2-yl)amino)pyridin-3-yl)-1-oxo-2,8-diazaspiro[4.5]decan-8-yl)-6-oxohexyl)oxy)-1-oxoisoindolin-2-yl)piperidine-2,6-dione]: below 500 nM; for `O=C(CCOc1cccc2c1C(=O)N(C1CCC(=O)NC1=O)C2=O)NCCCCCCCCC(=O)Nc1cncc(Nc2ncc(Cl)c(-c3cccc(-c4ccccc4)c3)n2)c1` (stereo not drawn) [Compound 89, N-(5-((4-([1,1′-biphenyl]-3-yl)-5-chloropyrimidin-2-yl)amino)pyridin-3-yl)-9-(3-((2-(2,6-dioxopiperidin-3-yl)-1,3-dioxoisoindolin-4-yl)oxy)propanamido)nonanamide]: below 500 nM.

In the case of `O=C1CCC(Nc2ccc(N3CCC(N4CCC5(CCN(c6cncc(Nc7ncc(Cl)c(N8CCCCC8)n7)c6)C5=O)CC4)CC3)cc2)C(=O)N1` (stereo not drawn) [Compound 91, 3-((4-(4-(2-(5-((5-chloro-4-(piperidin-1-yl)pyrimidin-2-yl)amino)pyridin-3-yl)-1-oxo-2,8-diazaspiro[4.5]decan-8-yl)piperidin-1-yl)phenyl)amino)piperidine-2,6-dione], the DC50 lay within 1000 to 5000 nM. The same measure for `O=C1CCC(N2Cc3cc(OCCCCCCC(=O)N4CCC5(CC4)CC(=O)N(c4cncc(Nc6ncc(Cl)c(-c7cccc(-c8ccccc8)c7)n6)c4)C5)ccc3C2=O)C(=O)N1` (stereo not drawn) [Compound 166, 3-(5-((7-(2-(5-((4-([1,1′-biphenyl]-3-yl)-5-chloropyrimidin-2-yl)amino)pyridin-3-yl)-3-oxo-2,8-diazaspiro[4.5]decan-8-yl)-7-oxoheptyl)oxy)-1-oxoisoindolin-2-yl)piperidine-2,6-dione]: below 500 nM; for `O=C(COc1ccc2c3c(cccc13)C(=O)N2C1CCC(=O)NC1=O)NCCCCCCCCCC(=O)Nc1cncc(Nc2ncc(Cl)c(-c3cccc(-c4ccccc4)c3)n2)c1` (stereo not drawn) [Compound 167, N-(5-((4-([1,1′-biphenyl]-3-yl)-5-chloropyrimidin-2-yl)amino)pyridin-3-yl)-10-(2-((1-(2,6-dioxopiperidin-3-yl)-2-oxo-1,2-dihydrobenzo[cd]indol-6-yl)oxy)acetamido)decanamide]: below 500 nM; for `O=C1CCC(Nc2ccc(N3CCC(CC(=O)N4CCC5(CC4)CCN(c4cncc(Nc6ncc(Cl)c(N7CCCCC7)n6)c4)C5=O)CC3)cc2)C(=O)N1` (stereo not drawn) [Compound 168, 3-((4-(4-(2-(2-(5-((5-chloro-4-(piperidin-1-yl)pyrimidin-2-yl)amino)pyridin-3-yl)-1-oxo-2,8-diazaspiro[4.5]decan-8-yl)-2-oxoethyl)piperidin-1-yl)phenyl)amino)piperidine-2,6-dione]: below 500 nM. The value for `O=C1CCC(Nc2ccc(C3CCN(CC(=O)N4CCC5(CC4)CCN(c4cncc(Nc6ncc(Cl)c(N7CCC[C@H](O)C7)n6)c4)C5=O)CC3)cc2)C(=O)N1` (stereo partly drawn) [Compound 169, 3-((4-(1-(2-(2-(5-((5-chloro-4-((S)-3-hydroxypiperidin-1-yl)pyrimidin-2-yl)amino)pyridin-3-yl)-1-oxo-2,8-diazaspiro[4.5]decan-8-yl)-2-oxoethyl)piperidin-4-yl)phenyl)amino)piperidine-2,6-dione] was below 500 nM; that for `O=C1CCC(Nc2ccc(C3CCN(CC(=O)N4CCC5(CC4)CCN(c4cncc(Nc6ncc(Cl)c(N7CCC[C@@H](O)C7)n6)c4)C5=O)CC3)cc2)C(=O)N1` (stereo partly drawn) [Compound 170, 3-((4-(1-(2-(2-(5-((5-chloro-4-((R)-3-hydroxypiperidin-1-yl)pyrimidin-2-yl)amino)pyridin-3-yl)-1-oxo-2,8-diazaspiro[4.5]decan-8-yl)-2-oxoethyl)piperidin-4-yl)phenyl)amino)piperidine-2,6-dione] was below 500 nM.

Turning to `O=C1CCC(Nc2ccc(C3CCN(CC(=O)N4CCC5(CC4)CCN(c4cncc(Nc6ncc(Cl)c(N7CCC[C@@H](C(F)(F)F)C7)n6)c4)C5=O)CC3)cc2)C(=O)N1` (stereo partly drawn) [Compound 171, 3-((4-(1-(2-(2-(5-((5-chloro-4-((R)-3-(trifluoromethyl)piperidin-1-yl)pyrimidin-2-yl)amino)pyridin-3-yl)-1-oxo-2,8-diazaspiro[4.5]decan-8-yl)-2-oxoethyl)piperidin-4-yl)phenyl)amino)piperidine-2,6-dione], the DC50 was below 500 nM. As to `O=C1CCC(Nc2ccc(C3CCN(CC(=O)N4CCC5(CC4)CCN(c4cncc(Nc6ncc(Cl)c(N7CCC[C@H](C(F)(F)F)C7)n6)c4)C5=O)CC3)cc2)C(=O)N1` (stereo partly drawn) [Compound 172, 3-((4-(1-(2-(2-(5-((5-chloro-4-((S)-3-(trifluoromethyl)piperidin-1-yl)pyrimidin-2-yl)amino)pyridin-3-yl)-1-oxo-2,8-diazaspiro[4.5]decan-8-yl)-2-oxoethyl)piperidin-4-yl)phenyl)amino)piperidine-2,6-dione], the half-maximal degradation concentration (DC50) is below 500 nM. The value for `O=C1CCC(Nc2ccc(N3CCC(CCN4CCC5(CC4)CCN(c4cncc(Nc6ncc(Cl)c(N7CCCCC7)n6)c4)C5=O)CC3)cc2)C(=O)N1` (stereo not drawn) [Compound 173, 3-((4-(4-(2-(2-(5-((5-chloro-4-(piperidin-1-yl)pyrimidin-2-yl)amino)pyridin-3-yl)-1-oxo-2,8-diazaspiro[4.5]decan-8-yl)ethyl)piperidin-1-yl)phenyl)amino)piperidine-2,6-dione] was below 500 nM. On to `O=C1CCC(Nc2ccc(N3CCC(CN4CCC5(CC4)CCN(c4cncc(Nc6ncc(Cl)c(-c7ccc(Cl)cc7)n6)c4)C5=O)CC3)cc2)C(=O)N1` (stereo not drawn) [Compound 174, 3-((4-(4-((2-(5-((5-chloro-4-(4-chlorophenyl)pyrimidin-2-yl)amino)pyridin-3-yl)-1-oxo-2,8-diazaspiro[4.5]decan-8-yl)methyl)piperidin-1-yl)phenyl)amino)piperidine-2,6-dione], for which the DC50 was 1000 to 5000 nM. The value for `O=C1CCC(Nc2ccc(N3CCC(CC(=O)N4CCC5(CC4)CCN(c4cncc(Nc6ncc(Cl)c(N7CCC[C@H](O)C7)n6)c4)C5=O)CC3)cc2)C(=O)N1` (stereo partly drawn) [Compound 175, 3-((4-(4-(2-(2-(5-((5-chloro-4-((S)-3-hydroxypiperidin-1-yl)pyrimidin-2-yl)amino)pyridin-3-yl)-1-oxo-2,8-diazaspiro[4.5]decan-8-yl)-2-oxoethyl)piperidin-1-yl)phenyl)amino)piperidine-2,6-dione] was below 500 nM. The same measure for `O=C1CCC(Nc2ccc(N3CCC(CC(=O)N4CCC5(CC4)CCN(c4cncc(Nc6ncc(Cl)c(N7CCC[C@@H](O)C7)n6)c4)C5=O)CC3)cc2)C(=O)N1` (stereo partly drawn) [Compound 176, 3-((4-(4-(2-(2-(5-((5-chloro-4-((R)-3-hydroxypiperidin-1-yl)pyrimidin-2-yl)amino)pyridin-3-yl)-1-oxo-2,8-diazaspiro[4.5]decan-8-yl)-2-oxoethyl)piperidin-1-yl)phenyl)amino)piperidine-2,6-dione]: below 500 nM; for `O=C1CCC(Nc2ccc(N3CCC(CC(=O)N4CCC5(CC4)CCN(c4cncc(Nc6ncc(Cl)c(N7CCC[C@@H](C(F)(F)F)C7)n6)c4)C5=O)CC3)cc2)C(=O)N1` (stereo partly drawn) [Compound 177, 3-((4-(4-(2-(2-(5-((5-chloro-4-((R)-3-(trifluoromethyl)piperidin-1-yl)pyrimidin-2-yl)amino)pyridin-3-yl)-1-oxo-2,8-diazaspiro[4.5]decan-8-yl)-2-oxoethyl)piperidin-1-yl)phenyl)amino)piperidine-2,6-dione]: below 500 nM; for `O=C1CCC(Nc2ccc(N3CCC(CC(=O)N4CCC5(CC4)CCN(c4cncc(Nc6ncc(Cl)c(N7CCC[C@H](C(F)(F)F)C7)n6)c4)C5=O)CC3)cc2)C(=O)N1` (stereo partly drawn) [Compound 178, 3-((4-(4-(2-(2-(5-((5-chloro-4-((S)-3-(trifluoromethyl)piperidin-1-yl)pyrimidin-2-yl)amino)pyridin-3-yl)-1-oxo-2,8-diazaspiro[4.5]decan-8-yl)-2-oxoethyl)piperidin-1-yl)phenyl)amino)piperidine-2,6-dione]: below 500 nM.
